Molecules are shown by their SMILES.

The source of these data is ChEMBL document CHEMBL1151288, “Dichlorinated pulvinic acid derivative from a Malaysian Scleroderma sp” (J Nat Prod, 2005).

Test [1] relates to P388. The test is described as follows: Cytotoxicity against mouse P388 cells. Type of test: functional, cell-based.
Test [2] has as its system Bacillus subtilis. The test is described as follows: Antibacterial activity against Bacillus subtilis at 40 ug. Type of test: functional. Conditions: read-out: IZ.

For `COC(=O)/C(=C1/OC(=O)C(c2ccc(OC)cc2)=C1O)c1cc(Cl)c(OC)c(Cl)c1`, the IC50 in test [1] worked out at 20.6 µM. Besides, in test [2], the zone of inhibition at 40 µg/disc was 4 mm. As to `COC(=O)/C(=C1/OC(O)=C(c2ccc(OC)cc2)C1=O)c1ccc(OC)cc1`, the zone of inhibition at 40 µg/disc in test [2] worked out at 8 mm.

As for `COC(=O)/C(=C1/OC(=O)C(c2ccc(OC)cc2)=C1O)c1ccc(OC)c(Cl)c1`, the zone of inhibition at 40 µg/disc in test [2] was 7 mm.
